From patent publication US6156700A, “3-(1,2-Benzisothiazol- and isoxazol-5-yl)-2,4(1H,3H)-pyrimidinedione or thione and 3-(1,2-benzisothiazol- and isoxazol-5-yl)-4(3H)-pyrimidinone or thione herbicidal agents” (American Cyanmid Company, priority 1998, dated 2000)

What was measured:
[1] = tested on: IPOSS; test: Postemergence herbicidal evaluation; format: in vivo
[2] = tested on: GALAP; test: Postemergence herbicidal evaluation; format: in vivo
[3] = tested on: CASOB; test: Postemergence herbicidal evaluation; format: in vivo
[4] = tested on: SETVI; test: Postemergence herbicidal evaluation; format: in vivo
[5] = tested on: ABUTH; test: Postemergence herbicidal evaluation; format: in vivo
[6] = tested on: CHEAL; test: Postemergence herbicidal evaluation; format: in vivo
[7] = tested on: ECHCG; test: Postemergence herbicidal evaluation; format: in vivo
[8] = tested on: ORYSAT; test: Preemergence herbicidal evaluation; format: in vivo, Oryza sativa; parameters: scale not given here
Protocol: (§1) The preemergence and postemergence herbicidal properties of certain compounds of the present invention are compared with certain compounds disclosed in U.S. Pat. Nos. 5,484,763 and 5,523,278. The evaluations are performed as described in Examples 185 and 186. Data in Tables V and VI are reported by the compound number given in Example 185 for the compounds of this invention or by comparative compound letter for the compounds disclosed in U.S. Pat. Nos. 5,484,763 and 5,523,278.

[9] = tested on: ZEAMX; test: Postemergence herbicidal evaluation; format: in vivo
[10] = tested on: GLXMAW; test: Postemergence herbicidal evaluation; format: in vivo
[11] = tested on: IPOSS; test: Preemergence herbicidal evaluation; format: in vivo; parameters: scale not given here
Protocol: as §1

[12] = tested on: SETVI; test: Preemergence herbicidal evaluation; format: in vivo; parameters: scale not given here
Protocol: as §1

[13] = tested on: CHEAL; test: Preemergence herbicidal evaluation; format: in vivo; parameters: scale not given here
Protocol: as §1

[14] = tested on: ZEAMX; test: Preemergence herbicidal evaluation; format: in vivo; parameters: scale not given here
Protocol: as §1

[15] = tested on: AMBEL; test: Preemergence herbicidal evaluation; format: in vivo; parameters: scale not given here
Protocol: as §1

[16] = tested on: ABUTH; test: Preemergence herbicidal evaluation; format: in vivo; parameters: scale not given here
Protocol: as §1

[17] = tested on: CASOB; test: Preemergence herbicidal evaluation; format: in vivo; parameters: scale not given here
Protocol: as §1

[18] = tested on: GLXMAW; test: Preemergence herbicidal evaluation; format: in vivo; parameters: scale not given here
Protocol: as §1

[19] = tested on: GALAP; test: Preemergence herbicidal evaluation; format: in vivo; parameters: scale not given here
Protocol: as §1

[20] = tested on: ECHCG; test: Preemergence herbicidal evaluation; format: in vivo; parameters: scale not given here
Protocol: as §1

[21] = tested on: ORYSAT; test: Postemergence herbicidal evaluation; format: in vivo, Oryza sativa
[22] = tested on: AMBEL; test: Postemergence herbicidal evaluation; format: in vivo

Measured: herbicidal effect rating

Cc1nsc2ccc(N3C(=O)C4=C(CCCC4)C3=O)cc12 [B]
1.0: [14]; 0.5000 kg/ha | [18]; 0.2500 kg/ha | [18]; 0.5000 kg/ha
8.0: [1]; 0.0625-0.0640 kg/ha | [1]; 0.1250 kg/ha | [1]; 0.2500 kg/ha | [2]; 0.2500 kg/ha | [2]; 0.5000 kg/ha | [3]; 0.0625-0.0640 kg/ha | [3]; 0.1250 kg/ha | [5]; 0.0157-0.0160 kg/ha | [5]; 0.0313-0.0320 kg/ha | [6]; 0.2500 kg/ha | [15]; 0.5000 kg/ha | [22]; 0.0625-0.0640 kg/ha | [22]; 0.1250 kg/ha
3.0: [6]; 0.0157-0.0160 kg/ha | [15]; 0.2500 kg/ha | [16]; 0.0620-0.0630 kg/ha | [20]; 0.1250 kg/ha
2.0: [4]; 0.0625-0.0640 kg/ha | [7]; 0.0313-0.0320 kg/ha | [7]; 0.0625-0.0640 kg/ha | [8]; 0.1250 kg/ha | [8]; 0.2500 kg/ha | [11]; 0.2500 kg/ha | [12]; 0.1250 kg/ha | [15]; 0.1250 kg/ha | [16]; 0.2500 kg/ha | [22]; 0.0157-0.0160 kg/ha
5.0: [2]; 0.0157-0.0160 kg/ha | [4]; 0.2500 kg/ha | [4]; 0.5000 kg/ha | [7]; 0.2500 kg/ha | [9]; 0.0157-0.0160 kg/ha | [9]; 0.0625-0.0640 kg/ha | [11]; 0.5000 kg/ha | [16]; 0.5000 kg/ha | [19]; 0.1250 kg/ha | [20]; 0.2500 kg/ha | [20]; 0.5000 kg/ha
4.0: [4]; 0.1250 kg/ha | [7]; 0.1250 kg/ha | [8]; 0.5000 kg/ha | [12]; 0.5000 kg/ha | [21]; 0.0313-0.0320 kg/ha
4.5: [21]; 0.0625-0.0640 kg/ha | [21]; 0.1250 kg/ha
9.0: [1]; 0.5000 kg/ha | [3]; 0.2500 kg/ha | [3]; 0.5000 kg/ha | [5]; 0.0625-0.0640 kg/ha | [5]; 0.1250 kg/ha | [5]; 0.2500 kg/ha | [5]; 0.5000 kg/ha | [6]; 0.1250 kg/ha | [6]; 0.5000 kg/ha | [13]; 0.0313-0.0320 kg/ha | [13]; 0.1250 kg/ha | [13]; 0.2500 kg/ha | [13]; 0.5000 kg/ha | [19]; 0.2500 kg/ha | [22]; 0.2500 kg/ha | [22]; 0.5000 kg/ha
3.5: [21]; 0.0157-0.0160 kg/ha
7.5: [10]; 0.5000 kg/ha
5.5: [9]; 0.0313-0.0320 kg/ha | [9]; 0.1250 kg/ha | [9]; 0.5000 kg/ha | [10]; 0.0157-0.0160 kg/ha | [10]; 0.0313-0.0320 kg/ha | [10]; 0.0625-0.0640 kg/ha | [21]; 0.2500 kg/ha
0.0: [4]; 0.0157-0.0160 kg/ha | [4]; 0.0313-0.0320 kg/ha | [7]; 0.0157-0.0160 kg/ha | [8]; 0.0313-0.0320 kg/ha | [8]; 0.0620-0.0630 kg/ha | [11]; 0.0313-0.0320 kg/ha | [11]; 0.0620-0.0630 kg/ha | [11]; 0.1250 kg/ha | [12]; 0.0313-0.0320 kg/ha | [12]; 0.0620-0.0630 kg/ha | [14]; 0.0313-0.0320 kg/ha | [14]; 0.0620-0.0630 kg/ha | [14]; 0.1250 kg/ha | [14]; 0.2500 kg/ha | [15]; 0.0313-0.0320 kg/ha | [15]; 0.0620-0.0630 kg/ha | [16]; 0.0313-0.0320 kg/ha | [17]; 0.0313-0.0320 kg/ha | [17]; 0.0620-0.0630 kg/ha | [17]; 0.1250 kg/ha | [17]; 0.2500 kg/ha | [17]; 0.5000 kg/ha | [18]; 0.0313-0.0320 kg/ha | [18]; 0.0620-0.0630 kg/ha | [18]; 0.1250 kg/ha | [19]; 0.0313-0.0320 kg/ha | [19]; 0.0620-0.0630 kg/ha | [20]; 0.0313-0.0320 kg/ha | [20]; 0.0620-0.0630 kg/ha
6.0: [1]; 0.0157-0.0160 kg/ha | [3]; 0.0157-0.0160 kg/ha | [7]; 0.5000 kg/ha | [9]; 0.2500 kg/ha | [10]; 0.1250 kg/ha | [12]; 0.2500 kg/ha | [13]; 0.0620-0.0630 kg/ha | [21]; 0.5000 kg/ha | [22]; 0.0313-0.0320 kg/ha
7.0: [1]; 0.0313-0.0320 kg/ha | [2]; 0.0313-0.0320 kg/ha | [2]; 0.0625-0.0640 kg/ha | [2]; 0.1250 kg/ha | [3]; 0.0313-0.0320 kg/ha | [6]; 0.0313-0.0320 kg/ha | [6]; 0.0625-0.0640 kg/ha | [10]; 0.2500 kg/ha | [19]; 0.5000 kg/ha
